In assay [1] the test system is Long-Evans male rats fed a 37% ethanol liquid diet. Put plainly: DNA damage in liver by 8-OHdG immunostaining. The format is in vivo, rat. The following applies: chronic ethanol fed rats. How it is done:
An isocaloric (sucrose substituted for ethanol) diet was administered to pair fed control animals. After three weeks, both groups of rats were injected with either PPAR-α, γ, or δ agonists or saline as a control. […] The […] were given IP injections twice a week. At 6 weeks, the animals underwent 2/3 partial hepatectomy. The removed liver was used for histology, measurement of lipid peroxidation, DNA damage and insulin/IGF signaling as described below. Following ⅔ hepatectomy, the liver remnants were harvested 18, 24, 30 and 48 hours later to assess the regenerative response. To do this, animals were injected IP with BrdU 2 hours before harvest to measure its incorporation into hepatic nuclei as an index of DNA synthesis.
Paraffin sections (8 μm thick) were immunostained with monoclonal antibodies to 8-hydroxy-deoxyguanosine (8-OHdG) (Oxis Research) or 4-hydroxynonenol (HNE) (Chemicon International, Temecula, Calif.), to detect DNA damage and lipid peroxidation, respectively. Prior to immunostaining, the deparaffinized, re-hydrated sections were treated with 0.1 mg/ml saponin in phosphate buffered saline (10 mM sodium phosphate, 0.9% NaCl, pH 7.4; PBS) for 20 minutes at room temperature, followed by 3% hydrogen peroxide in methanol for 10 minutes to quench endogenous peroxidase activity, and then a 30-minute incubation in SuperBlock-TBS (Pierce Chemical Co., Rockford, Ill.) to block non-specific binding sites. The tissue sections were then incubated overnight at 4° C. with 0.5-1 μg/ml of primary antibody. […] The tissue sections were counterstained with hematoxylin, preserved under coverglass, and examined by light microscopy.

For assay [2], the system named is IGF-II receptor. Put plainly: Saturation binding assay in liver of treated rats, IGF-II receptor binding. The following applies: pooled liver of 8 rats. The format is in vivo, rat. The text has this: Adult male (˜200-250 g) Long Evans rats (Harlan Sprague Dawley, Inc., Indianapolis, Ind.) were pair-fed with isocaloric liquid diets (BioServ, Frenchtown, N.J.) containing 0% (control) or 37% ethanol by caloric content (9.2% v/v) for 8 weeks. During the week prior to initiating the experiment, rats were adapted to the ethanol-containing diets by sequentially feeding them for two days each with diets containing 8%, 17%, 24%, and then 37% ethanol. Chow fed control rats were also studied. Rats were monitored daily to ensure equivalent food consumption and maintenance of body weight. During the last 3 weeks of the experiment while being maintained on either the 0% or 37% ethanol-containing liquid diets, rats in both groups were administered twice weekly (Mondays and Thursdays) intra-peritoneal (i.p.) injections of vehicle (saline), a PPAR-α (GW7647; 25 μg/kg), PPAR δ (L-165,041; 2 μg/kg), or PPAR-γ (F-L-Leu; 20 μg/kg) agonist (CalBiochem, Carlsbad, Calif.). At the conclusion of the experiment, rats were anesthetized with vaporized isofluorane (SurgiVet, Inc. Waukesha, Wis.), and liver and blood were harvested for analysis. Liver tissue samples were immersion fixed in Histochoice (Amresco Corp., Solon, Ohio) and embedded in paraffin. Adjacent histological sections were stained with Hematoxylin and Eosin or Gomori's Trichrome and examined under code. In addition, liver tissue samples were snap-frozen in a dry ice methanol bath and then stored at −80° C. for later mRNA and protein studies. Throughout the experiment, rats were housed under humane conditions and kept on a 12-hour light/dark cycle with free access to food. All experiments were performed in accordance with protocols that conform to guidelines established by the National Institutes of Health and were approved by Institutional Animal Care and Use Committee at the Lifespan-Rhode Island Hospital.
Saturation binding studies were used to determine if the PPAR agonist treatments improved ethanol-impaired insulin and IGF receptor binding in liver. Fresh frozen liver tissue was homogenized in 5 volumes of lysis buffer containing 50 mM Tris-HCl, pH 7.5, 1% NP-40, 150 mM NaCl, 1 mM EDTA, 2 mM EGTA, plus protease (1 mM PMSF, 0.1 mM TPCK, 1 μg/ml aprotinin, 1 μg/ml pepstatin A, 0.5 μg/ml leupeptin, 1 mM NaF, 1 mM Na4P2O7) and phosphatase (2 mM Na3VO4) inhibitors. Protein concentration was determined using the bicinchoninic acid (BCA) assay (Pierce, Rockford, Ill.). Exploratory studies determined the optimum amounts of protein and concentrations of radiolabeled ligand required to achieve 20% specific binding. Insulin receptor binding was measured using 100 μg protein per assay tube. IGF-I binding assays required 25 μg protein per sample, and IGF-II receptor binding assays required 10 μg protein per reaction.
To generate the binding curse, samples from 8 rats per group were pooled in equivalent ratios and protein concentrations were adjusted to be identical for each group. For total binding, duplicate samples were incubated in 100 μl reactions containing binding buffer (100 mM HEPES, pH 8.0, 118 mM NaCl, 1.2 mM MgSO4, 8.8 mM dextrose, 5 mM KCl, 1% bovine serum albumin) and 0.0031 to 1 μCi/ml of [^125I] (2000 Ci/mmol) insulin, IGF-I, or IGF-II. For non-specific binding, duplicate samples were identically prepared but with the addition of 0.1 μM unlabeled (cold) ligand. Incubations were carried out for 16 hours at 4° C. in non-binding 96 well plates (Corning Incorporated Life Science, Lowell, Mass.). Reactions were vacuum harvested (Corning, Lowell, Mass.) onto 96-well GF/C filter plates that had been presoaked for 30 minutes in 0.33% polyethyleneimine (PEI) solution. The filters were washed 5 times with buffer containing 50 mM buffer [4-2-hydroxyethyl)-1-piperazine-ethanesulfonic acid (HEPES), pH 7.4, 500 mM NaCl, and 0.1% BSA. […]

Molecules are shown by their SMILES. “Also recorded” adds a separate entry of the source.

Take `CC(C)(Sc1ccc(CCN(CCCCC2CCCCC2)C(=O)NC2CCCCC2)cc1)C(=O)O` [PPAR-α, GW7647]: the “DNA damage (8-OHdG immunoreactivity)” value in assay [1] was “protective effect”. For the same compound, the “BMAX ± S.E.M.” value is reported as 40.27 ± 3.28 in assay [2] (Control + agonist) and 28.88 ± 6.20 in assay [2] (Ethanol + agonist).
With `CC(C)C[C@H](NC(=O)OCC1c2ccccc2-c2ccccc21)C(=O)O` [PPAR-γ, F-L-Leu], the “DNA damage (8-OHdG immunoreactivity)” value in assay [1] is on record as “protective effect”. For the same compound, the figures for the “BMAX ± S.E.M.” value in assay [2] (Control + agonist) and in assay [2] (Ethanol + agonist) were 25.20 ± 2.04 and 22.56 ± 4.43, respectively.
Regarding `CCCc1c(OCCCOc2ccc(OCC(=O)O)cc2)ccc(C(C)=O)c1O` [PPAR-δ, L-165,041], the “DNA damage (8-OHdG immunoreactivity)” value in assay [1] is “most prominent protective effect; also recorded: superior to the α and γ agents in preventing hepatocyte damage”. The “BMAX ± S.E.M.” value is listed as 29.01 ± 1.99 in assay [2] (Control + agonist) and 51.50 ± 13.53 in assay [2] (Ethanol + agonist).

The values above are taken from US9717719B2, “Treatment, prevention, and reversal of alcohol-induced liver disease” (Rhode Island Hospital, priority 2006, dated 2017).
